Measurements taken from ChEMBL document CHEMBL3882244, “IL-8 Receptor Antagonists” (2007).

Tests used:
[1] = target: T1, C-X-C chemokine receptor type 2 (Homo sapiens, UniProt P25025); assay: Displacement of [125I]IL8 from recombinant human CXCR2 expressed in CHO cell membranes measured after 1 hr by TopCount scintillation counting method
T1 sequence (P25025 whole entry): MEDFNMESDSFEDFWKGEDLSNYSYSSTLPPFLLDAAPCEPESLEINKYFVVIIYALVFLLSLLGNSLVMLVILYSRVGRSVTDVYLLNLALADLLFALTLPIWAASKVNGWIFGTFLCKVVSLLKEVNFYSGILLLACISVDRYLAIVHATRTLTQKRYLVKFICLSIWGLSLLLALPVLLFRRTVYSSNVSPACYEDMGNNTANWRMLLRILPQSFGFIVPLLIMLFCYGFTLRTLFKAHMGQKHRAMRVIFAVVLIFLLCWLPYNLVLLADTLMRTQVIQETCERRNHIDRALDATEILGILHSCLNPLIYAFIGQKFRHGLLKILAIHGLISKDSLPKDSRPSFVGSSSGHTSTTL

[2] = target: T1, C-X-C chemokine receptor type 2; assay: Antagonist activity at CXCR2 (unknown origin) expressed in CHO-K1 cells co-expressing Galpha-16 assessed as inhibition of IL8-induced calcium mobilization measured after 10 mins by Fluo-4AM dye based FLIPR assay; type: functional, cell-based
Blood = assay: Inhibition of GROalpha-induced CD11b integrin expression on human neutrophils in human whole blood pretreated for 10 mins followed by GROalpha challenge measured after 10 mins by FITC/PE staining based flow cytometry; type: functional, tissue-based

IC50 [1]	IC50 [2]	IC50 (Blood)	Structure (SMILES)
< 30000 nM	5 to 600 nM	–	CCc1ccccc1NC(=O)Nc1ccc(Cl)c(S(=O)(=O)[C@@H]2CCNC2)c1O
–	5 to 600 nM	–	O=C(Nc1cccnc1Cl)Nc1ccc(Cl)c(S(=O)(=O)C2CCNCC2)c1O
< 30000 nM	5 to 600 nM	–	O=C(Nc1ccc(Cl)c(S(=O)(=O)C2CCNCC2)c1O)Nc1cccc2c1OC(F)(F)O2
–	5 to 600 nM	–	CCOC(=O)N1CCC(S(=O)(=O)c2c(Cl)ccc(NC(=O)Nc3cccc(F)c3Cl)c2O)CC1
< 30000 nM	5 to 600 nM	–	Cc1c(F)cccc1NC(=O)Nc1ccc(Cl)c(S(=O)(=O)C2CNC2)c1O
–	5 to 600 nM	500 to 2000 nM	O=C(Nc1ccccc1Oc1ccccc1)Nc1ccc(Cl)c(S(=O)(=O)[C@H]2CCNC2)c1O
–	5 to 600 nM	–	O=C(Nc1ccc(Cl)c(S(=O)(=O)CC2CCNC2)c1O)Nc1cccc(F)c1Cl (configuration not stated)
–	5 to 600 nM	–	O=C(Nc1ccc(Cl)c(S(=O)(=O)[C@H]2CCNC2)c1O)Nc1cccc(F)c1Cl
–	5 to 600 nM	–	O=C(Nc1ccccc1OC(F)(F)F)Nc1ccc(Cl)c(S(=O)(=O)[C@@H]2CCNC2)c1O
< 30000 nM	5 to 600 nM	–	O=C(Nc1ccc(Cl)c(S(=O)(=O)C2CCCNC2)c1O)Nc1cccc(Cl)c1Cl (configuration not stated)
–	5 to 600 nM	–	CCc1ccccc1NC(=O)Nc1ccc(Cl)c(S(=O)(=O)C2CCCNC2)c1O (configuration not stated)
–	5 to 600 nM	–	O=C(Nc1ccccc1OC(F)(F)F)Nc1ccc(Cl)c(S(=O)(=O)C2CCNCC2)c1O
–	5 to 600 nM	500 to 2000 nM	O=C(Nc1cccnc1Cl)Nc1ccc(Cl)c(S(=O)(=O)C2CCCNC2)c1O (configuration not stated)
< 30000 nM	5 to 600 nM	–	CCc1ccccc1NC(=O)Nc1ccc(Cl)c(S(=O)(=O)C2CCNCC2)c1O
–	5 to 600 nM	–	CCOC(=O)N1CCC(S(=O)(=O)c2c(Cl)ccc(NC(=O)Nc3cccc(F)c3C)c2O)CC1
< 30000 nM	5 to 600 nM	–	Cc1c(F)cccc1NC(=O)Nc1ccc(Cl)c(S(=O)(=O)CC2CCNC2)c1O (configuration not stated)

IC50 [1]	IC50 [2]	IC50 (Blood)	Structure (SMILES)
–	5 to 600 nM	–	O=C(Nc1ccccc1Oc1ccccc1)Nc1ccc(Cl)c(S(=O)(=O)C2CCNCC2)c1O
< 30000 nM	–	500 to 2000 nM	O=C(Nc1cccnc1Cl)Nc1ccc(Cl)c(S(=O)(=O)[C@H]2CCCNC2)c1O
–	5 to 600 nM	–	O=C(Nc1ccc(Cl)c(S(=O)(=O)[C@@H]2CCNC2)c1O)Nc1cccc2c1OC(F)(F)O2
< 30000 nM	5 to 600 nM	–	O=C(Nc1ccccc1OC(F)(F)F)Nc1ccc(Cl)c(S(=O)(=O)CC2CCNC2)c1O (configuration not stated)
–	5 to 600 nM	–	O=C(Nc1ccccc1OC(F)(F)F)Nc1ccc(Cl)c(S(=O)(=O)C2CCCNC2)c1O (configuration not stated)
–	5 to 600 nM	–	O=C(Nc1ccc(Cl)c(S(=O)(=O)C2CNC2)c1O)Nc1cccc(F)c1Cl
< 30000 nM	5 to 600 nM	–	O=C(Nc1cccnc1Cl)Nc1ccc(Cl)c(S(=O)(=O)C2CNC2)c1O
< 30000 nM	5 to 600 nM	–	CCOC(=O)N1CCC(S(=O)(=O)c2c(Cl)ccc(NC(=O)Nc3ccccc3Oc3ccccc3)c2O)CC1
–	5 to 600 nM	500 to 2000 nM	O=C(Nc1ccc(Cl)c(S(=O)(=O)[C@H]2CCCNC2)c1O)Nc1cccc(F)c1Cl
< 30000 nM	5 to 600 nM	–	O=C(Nc1ccc(Cl)c(S(=O)(=O)[C@@H]2CCNC2)c1O)Nc1cccc(F)c1Cl
< 30000 nM	5 to 600 nM	500 to 2000 nM	O=C(Nc1ccc(Cl)c(S(=O)(=O)C2CCNCC2)c1O)Nc1cccc(F)c1Cl
< 30000 nM	5 to 600 nM	500 to 2000 nM	Cc1c(F)cccc1NC(=O)Nc1ccc(Cl)c(S(=O)(=O)C2CCNCC2)c1O
–	5 to 600 nM	–	Cc1c(F)cccc1NC(=O)Nc1ccc(Cl)c(S(=O)(=O)[C@H]2CCNC2)c1O
–	5 to 600 nM	500 to 2000 nM	O=C(Nc1cccnc1Cl)Nc1ccc(Cl)c(S(=O)(=O)[C@H]2CCNC2)c1O
–	–	500 to 2000 nM	Cc1c(F)cccc1NC(=O)Nc1ccc(Cl)c(S(=O)(=O)[C@H]2CCCNC2)c1O [DANIRIXIN]

Structure (SMILES)	IC50 [1]	IC50 [2]	IC50 (Blood)
O=C(Nc1ccccc1Oc1ccccc1)Nc1ccc(Cl)c(S(=O)(=O)C2C[C@H]3CC[C@@H](C2)N3)c1O (some centres not stated)	< 30000 nM	5 to 600 nM	–
O=C(Nc1ccc(Cl)c(S(=O)(=O)C2C[C@H]3CC[C@@H](C2)N3)c1O)Nc1cccc(F)c1Cl (some centres not stated)	–	5 to 600 nM	–
Cc1c(F)cccc1NC(=O)Nc1ccc(Cl)c(S(=O)(=O)[C@@H]2C[C@H]3CC[C@@H](C2)N3C)c1O	< 30000 nM	5 to 600 nM	–
O=C(Nc1cccnc1Cl)Nc1ccc(Cl)c(S(=O)(=O)C2C[C@H]3CC[C@@H](C2)N3)c1O (some centres not stated)	–	5 to 600 nM	–
Cc1c(F)cccc1NC(=O)Nc1ccc(Cl)c(S(=O)(=O)C2C[C@H]3CC[C@@H](C2)N3)c1O (some centres not stated)	–	5 to 600 nM	–
